Experimental data from patent publication EP4737448A1, “SARM1 ENZYME ACTIVITY INHIBITOR AND USE THEREOF” (Artivila (ShenZhen) Innovation Center, Ltd., priority 2023, dated 2025).

molecular target: T1, SARM1 (Homo sapiens, UniProt Q6SZW1); assay: In vitro biochemical assay for inhibiting SARM1 enzymatic activity (PC6 fluorescence, NAD substrate, NMN activator); settings: 0.05 µg/mL SARM1, 50 µM NAD, 50 µM PC6, 50 µM NMN, 10 min pre-incubation, 30 min at room temperature
T1 construct: the inventor produces full-length SARM1 for NADase activity assays and for screening; His (C); made in house; host or cells: HEK293 cells (transient transfection; digitonin lysate supernatant, not purified further)
T1 sequence (Q6SZW1 28-724): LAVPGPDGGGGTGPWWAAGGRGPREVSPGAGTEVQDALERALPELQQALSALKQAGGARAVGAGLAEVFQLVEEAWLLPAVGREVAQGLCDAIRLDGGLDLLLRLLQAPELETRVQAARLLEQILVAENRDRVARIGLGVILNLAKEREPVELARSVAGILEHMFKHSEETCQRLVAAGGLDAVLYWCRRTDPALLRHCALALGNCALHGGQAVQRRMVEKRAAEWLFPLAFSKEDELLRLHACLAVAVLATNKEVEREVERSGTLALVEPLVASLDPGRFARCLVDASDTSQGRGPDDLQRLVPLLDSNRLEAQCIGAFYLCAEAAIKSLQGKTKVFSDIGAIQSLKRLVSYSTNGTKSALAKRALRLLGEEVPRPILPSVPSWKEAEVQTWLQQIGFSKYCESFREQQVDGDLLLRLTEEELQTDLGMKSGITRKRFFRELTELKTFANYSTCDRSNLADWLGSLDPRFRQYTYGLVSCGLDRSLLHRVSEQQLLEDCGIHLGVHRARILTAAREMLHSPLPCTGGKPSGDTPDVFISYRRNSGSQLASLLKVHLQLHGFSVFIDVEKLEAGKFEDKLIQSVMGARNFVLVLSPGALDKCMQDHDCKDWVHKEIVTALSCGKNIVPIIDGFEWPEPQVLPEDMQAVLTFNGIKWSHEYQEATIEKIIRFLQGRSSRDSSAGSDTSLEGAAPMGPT
Experimental: Compounds to be tested were stocked at 200 µM or 10 mM (in DMSO), and further diluted to the desired compound concentration for the in vitro SARM1 enzyme assay and inhibitor screening.
The gene sequence encoding SARM1 protein was amplified by PCR and the PCR amplification product was constructed into the pcDNA3.1-HIS-C plasmid. This construction was completed by YouBio Biological Technology (Hunan, China).
HEK293 cells were cultured in DMEM in a 10 cm dish. The next day, cells were transfected with 15 µg of the pcDNA3.1-SARM1-HIS-C expression plasmid.
Cells were harvested 48 hours after the transfection. The SARM1 protein expressed in cells was obtained through cell lysis by digitonin, which was used for in vitro activity assay. The specific process was as follows:
Cells were digested and detached from the dish using trypsin-EDTA, centrifuged at 1000 rpm for 5 minutes, washed once with PBS, then resuspended in PBS containing 100 µM digitonin at 0.6 mL PBS for the cells in 10 cm dish and lysed for 5 min. The cells were added with trypan blue and observed under a microscope. More than 90% of the cells were confirmed to be lysed. The cells were centrifuged at 5000 rpm for 10 min, and the supernatant containing SARM1 protein was collected.
The compound was added into a solution of 50 mM Tris-HCl (pH 7.5) containing 0.05 µg/mL SARM1 to achieve a concentration of 200 µM, and then serially diluted 6 times, where each dilution was carried out by taking half of the previous solution and adding an equal volume of 50 mM Tris-HCl (pH 7.5) containing 0.05 µg/mL SARM1, yielding a set of final concentrations of the compound of either 200, 100, 50, 25, 12.5, 6.25 and 3.125 µM, or 200, 50, 12.5, 3.125, 0.78, 0.195 and 0.049 µM. No inhibitor was added in the control group. All mixtures were incubated at room temperature for 10 min.
Subsequently, 50 µM NAD, 50 µM PC6 as substrate and 50 µM NMN as activator were added to the SARM1 protein incubated with the inhibitor and reacted for 30 min at room temperature. Wherein, the aforementioned concentrations of each component represent their respective final concentrations in the reaction system
During the reaction, the fluorescence spectrum dynamics of PC6 was detected by a microplate reader, with excitation and emission wavelengths set at 390 nm and 520 nm, respectively. The activity of the protein was expressed as the reaction rate and half maximal inhibitory concentration was calculated. The higher the reaction rate, the stronger the protein activity, and the lower the inhibitory efficiency of the compound.
Dose-response curves for inhibition of SARM1 enzymatic activity for NAD by the compounds were plotted using the above method.

IC50 [µM]	Compound
1 to 10	3-(4-chloro-2-fluorobenzyl)-1-(4-(pyridin-4-yl)phenyl)pyrrolidin-2-one [Compound 42]
10 to 30	O=C1C(Oc2ccc(Cl)cc2)CCN1c1ccc(-c2ccncc2)cc1 (stereo not shown) [Compound 2, 3-(4-chlorophenoxy)-1-(4-(pyridin-4-yl)phenyl)pyrrolidin-2-one]
10 to 30	CC(c1ccc(Cl)cc1)C1CCN(c2ccc(-c3ccncc3)cc2)C1=O (stereo not shown) [Compound 4, 3-(1-(4-chlorophenyl)ethyl)-1-(4-(pyridin-4-yl)phenyl)pyrrolidin-2-one]
< 1	C=C(Cc1ccc(Cl)cc1)C(=O)Nc1ccc(-c2ccncc2)cc1 [Compound 5]
1 to 10	O=C1C(Cc2ccc(Cl)cc2)CCN1c1ccc(-c2ccncn2)cc1 (stereo not shown) [Compound 9, 3-(4-chlorobenzyl)-1-(4-(pyrimidin-4-yl)phenyl)pyrrolidin-2-one]
1 to 10	Cc1cc(N2CCC(Cc3ccc(Cl)cc3)C2=O)ccc1-c1ccncc1 (stereo not shown) [Compound 10, 3-(4-chlorobenzyl)-1-(3-methyl-4-(pyridin-4-yl)phenyl)pyrrolidin-2-one]
10 to 30	O=C1C(Cc2ccc(Cl)cc2)CCN1c1ccc(-c2ccncc2)cc1Cl (stereo not shown) [Compound 11, 3-(4-chlorobenzyl)-1-(2-chloro-4-(pyridin-4-yl)phenyl)pyrrolidin-2-one]
< 1	S=C1C(Cc2ccc(Cl)cc2)CCN1c1ccc(-c2ccncc2)cc1 (stereo not shown) [Compound 12]
< 1	O=C1N(Cc2ccc(Cl)cc2)CCN1c1ccc(-c2ccncc2)cc1 [Compound 13, 1-(4-chlorobenzyl)-3-(4-(pyridin-4-yl)phenyl)imidazolin-2-one]
< 1	Cc1cnccc1-c1ccc(N2CCC(Cc3ccc(Cl)cc3)C2=O)cc1 (stereo not shown) [Compound 14, 3-(4-chlorobenzyl)-1-(4-(3-methylpyridin-4-yl)phenyl)pyrrolidin-2-one]
1 to 10	O=C1C(Cc2ccc(Cl)c(F)c2)CCN1c1ccc(-c2ccncc2)cc1 (stereo not shown) [Compound 16, 3-(4-chloro-3-fluorobenzyl)-1-(4-(pyridin-4-yl)phenyl)pyrrolidin-2-one]
1 to 10	O=C1C(Cc2ccc(C(F)(F)F)cc2)CCN1c1ccc(-c2ccncc2)cc1 (stereo not shown) [Compound 18, 3-(4-trifluoromethylbenzyl)-1-(4-(pyridin-4-yl)phenyl)pyrrolidin-2-one]
1 to 10	N#Cc1ccc(CC2CCN(c3ccc(-c4ccncc4)cc3)C2=O)cc1 (stereo not shown) [Compound 19, 3-(4-cyanobenzyl)-1-(4-(pyridin-4-yl)phenyl)pyrrolidin-2-one]
1 to 10	O=C1C(Cc2ccc(Cl)cc2)=CCN1c1ccc(-c2ccncc2)cc1 [Compound 22]
10 to 30	O=C1C(Cc2ccc(Cl)cc2)CCN1c1cnc(-c2ccncc2)nc1 (stereo not shown) [Compound 23, 3-(4-chlorobenzyl)-1-(2-(pyridin-4-yl)pyrimidin-5-yl)pyrrolidin-2-one]
10 to 30	O=C1C(Cc2cccc(Cl)c2)CCN1c1ccc(-c2ccncc2)cc1 (stereo not shown) [Compound 26, 3-(3-chlorobenzyl)-1-(4-(pyridin-4-yl)phenyl)pyrrolidin-2-one]
10 to 30	O=C1C(CCc2ccc(Cl)cc2)CCN1c1ccc(-c2ccncc2)cc1 (stereo not shown) [Compound 27, 3-(4-chlorophenethyl)-1-(4-(pyridin-4-yl)phenyl)pyrrolidin-2-one]
10 to 30	O=C1C(Cc2ccc(Cl)cn2)CCN1c1ccc(-c2ccncc2)cc1 (stereo not shown) [Compound 28]
10 to 30	O=C1C(Cc2ccc(Br)cc2)CCN1c1ccc(-c2ccncc2)cc1 (stereo not shown) [Compound 31, 3-(4-bromobenzyl)-1-(4-(pyridin-4-yl)phenyl)pyrrolidin-2-one]

IC50 [µM]	Compound
10 to 30	O=C1C(Cc2ccc([N+](=O)[O-])cc2)CCN1c1ccc(-c2ccncc2)cc1 (stereo not shown) [Compound 32, 3-(4-nitrobenzyl)-1-(4-(pyridin-4-yl)phenyl)pyrrolidin-2-one]
< 1	O=C1C(Cc2ccc(Cl)cc2)CCN1c1ccc(-c2ccncc2F)cc1 (stereo not shown) [Compound 35, 3-(4-chlorobenzyl)-1-(4-(3-fluoropyridin-4-yl)phenyl)pyrrolidin-2-one]
10 to 30	N#Cc1cnccc1-c1ccc(N2CCC(Cc3ccc(Cl)cc3)C2=O)cc1 (stereo not shown) [Compound 36, 3-(4-chlorobenzyl)-1-(4-(3-cyanopyridin-4-yl)phenyl)pyrrolidin-2-one]
1 to 10	NC(=O)c1cnccc1-c1ccc(N2CCC(Cc3ccc(Cl)cc3)C2=O)cc1 (stereo not shown) [Compound 37]
1 to 10	O=C1C(Cc2ccc(Cl)cc2)CCCN1c1ccc(-c2ccncc2)cc1 (stereo not shown) [Compound 38, 3-(4-chlorobenzyl)-1-(4-(pyridin-4-yl)phenyl)piperidin-2-one]
1 to 10	COc1cc(-c2ccncc2)ccc1N1CCCC(Cc2ccc(Cl)cc2)C1=O (stereo not shown) [Compound 39, 3-(4-chlorobenzyl)-1-(2-methoxy-4-(pyridin-4-yl)phenyl)piperidin-2-one]
1 to 10	O=C1C(Cc2ccc(Cl)cc2)CCON1c1ccc(-c2ccncc2)cc1 (stereo not shown) [Compound 40, 4-(4-chlorobenzyl)-2-(4-(pyridin-4-yl)phenyl)-1,2-oxaza-3-one]
1 to 10	O=C1CC(Cc2ccc(Cl)cc2)C(=O)N1c1ccc(-c2ccncc2)cc1 (stereo not shown) [Compound 43, 3-(4-chlorobenzyl)-1-(4-(pyridin-4-yl)phenyl)pyrrolidin-2,5-one]
< 1	N#Cc1ccc(CC2CCN(c3ccc(-c4ccncc4)nn3)C2=O)cc1 (stereo not shown) [Compound 61]
< 1	Cc1ccc(CC2CCN(c3ccc(-c4ccncc4)nn3)C2=O)cc1 (stereo not shown) [Compound 63]
< 1	O=C1C(Cc2cc(F)cc(F)c2)CCN1c1ccc(-c2ccncc2)nn1 (stereo not shown) [Compound 68]
1 to 10	O=C1C(Cc2ccc(Cl)o2)CCN1c1ccc(-c2ccncc2)cc1 (stereo not shown) [Compound 73]
< 1	Cc1cnccc1-c1ccc(N2CCC(Cc3ccc(Cl)cc3)C2=O)nn1 (stereo not shown) [Compound 74, 3-(4-chlorobenzyl)-1-(6-(3-methylpyridin-4-yl)pyridazin-3-yl)pyrrolidin-2-one]
10 to 30	O=C1/C(=C/c2ccc(Cl)cc2)CCN1c1ccc(-c2ccncc2)nn1 [Compound 78, (E)-3-(4-chlorobenzylidene)-1-(6-(pyridin-4-yl)pyridazin-3-yl)pyrrolidin-2-one]
1 to 10	O=C1C(Cc2ccc(F)c(F)c2)=CCN1c1ccc(-c2ccncc2)cc1 [Compound 85, 3-(3,4-difluorobenzyl)-1-(4-(pyridin-4-yl)phenyl)-1,5-dihydro-2H-pyrrolidin-2-one]
1 to 10	COC(=O)c1ccc(CC2CCN(c3ccc(-c4ccncc4)cc3)C2=O)cc1 (stereo not shown) [Compound 86, methyl 4-((2-oxo-1-(4-(pyridin-4-yl)phenyl)pyrrolidin-3-yl)methyl)benzoate]
10 to 30	O=C(O)c1ccc(CC2CCN(c3ccc(-c4ccncc4)cc3)C2=O)cc1 (stereo not shown) [Compound 87, 4-((2-oxo-1-(4-(pyridin-4-yl)phenyl)pyrrolidin-3-yl)methyl)benzoic acid]
10 to 30	CN1CCN(Cc2ccc(CC3CCN(c4ccc(-c5ccncc5)cc4)C3=O)cc2)CC1 (stereo not shown) [Compound 88, 3-(4-((4-methylpiperazin-1-yl)methyl)benzyl)-1-(4-(pyridin-4-yl)phenyl)pyrrolidin-2-one]
